Laboratory results as given in ChEMBL document CHEMBL3046635, “Synthesis and Herbicidal Activity of New Pyrazole-4-carboxamide Derivatives” (J Pestic Sci, 2004).
The source made the active and inactive calls.

The compounds below were run on Rotala indica (assay: Post-emergence herbicidal activity against Rotala indica assessed as bleaching of stem/leaf parts). Conditions: not given.
Format: functional, organism-based

Row | Compound | Activity
1 | CCCCONC(=O)c1cn(C)nc1OCc1cccc(C(F)(F)F)c1 | Active

Each compound was assayed on Lindernia procumbens (assay: Pre-emergence herbicidal activity against Lindernia procumbens at 500 g a.i/ha measured after 14 days). Conditions: not given.
Format: functional, organism-based

Row | Compound | Activity
2 | CCCCONC(=O)c1cn(C)nc1OCc1cccc(C(F)(F)F)c1 | Active

What follows are compounds tested on Eleocharis acicularis (assay: Pre-emergence herbicidal activity against Eleocharis acicularis assessed as bleaching of stem/leaf parts). Conditions: not given.
Format: functional, organism-based

Row | Compound | Activity
3 | CCCCONC(=O)c1cn(C)nc1OCc1cccc(C(F)(F)F)c1 | Active

What follows are compounds tested on Lindernia procumbens (assay: Pre-emergence herbicidal activity against Lindernia procumbens at 100 g a.i/ha measured after 14 days). Conditions: not given.
Format: functional, organism-based

Row | Compound | Activity
4 | CCCCONC(=O)c1cn(C)nc1OCc1cccc(C(F)(F)F)c1 | Active

Each compound was assayed on Lindernia procumbens (assay: Pre-emergence herbicidal activity against Lindernia procumbens assessed as bleaching of stem/leaf parts). Conditions: not given.
Format: functional, organism-based

Row | Compound | Activity
5 | CCCCONC(=O)c1cn(C)nc1OCc1cccc(C(F)(F)F)c1 | Active

Each compound was assayed on Schoenoplectiella juncoides (assay: Pre-emergence herbicidal activity against Schoenoplectiella juncoides assessed as bleaching of stem/leaf parts). Conditions: not given.
Format: functional, organism-based

Row | Compound | Activity
6 | CCCCONC(=O)c1cn(C)nc1OCc1cccc(C(F)(F)F)c1 | Active

Each compound was assayed on Schoenoplectiella juncoides (assay: Post-emergence herbicidal activity against Schoenoplectiella juncoides assessed as bleaching of stem/leaf parts). Conditions: not given.
Format: functional, organism-based

Row | Compound | Activity
7 | CCCCONC(=O)c1cn(C)nc1OCc1cccc(C(F)(F)F)c1 | Active

The compounds below were run on Rotala indica (assay: Pre-emergence herbicidal activity against Rotala indica assessed as bleaching of stem/leaf parts). Conditions: not given.
Format: functional, organism-based

Row | Compound | Activity
8 | CCCCONC(=O)c1cn(C)nc1OCc1cccc(C(F)(F)F)c1 | Active

What follows are compounds tested on Elatine triandra (assay: Post-emergence herbicidal activity against Elatine triandra assessed as bleaching of stem/leaf parts). Conditions: not given.
Format: functional, organism-based

Row | Compound | Activity
9 | CCCCONC(=O)c1cn(C)nc1OCc1cccc(C(F)(F)F)c1 | Active

These compounds were tested on Echinochloa oryzicola (assay: Pre-emergence herbicidal activity against Echinochloa oryzicola at 100 g a.i/ha measured after 14 days). Conditions: not given.
Format: functional, organism-based

Row | Compound | Activity
10 | CCCCONC(=O)c1cn(C)nc1OCc1cccc(C(F)(F)F)c1 | Active

The compounds below were run on Ammannia multiflora (assay: Pre-emergence herbicidal activity against Ammannia multiflora assessed as bleaching of stem/leaf parts). Conditions: not given.
Format: functional, organism-based

Row | Compound | Activity
11 | CCCCONC(=O)c1cn(C)nc1OCc1cccc(C(F)(F)F)c1 | Active

What follows are compounds tested on Pontederia vaginalis (assay: Pre-emergence herbicidal activity against Monochoria vaginalis at 100 g a.i/ha measured after 14 days). Conditions: not given.
Format: functional, organism-based

Row | Compound | Activity
12 | CCCCONC(=O)c1cn(C)nc1OCc1cccc(C(F)(F)F)c1 | Active

These compounds were tested on Schoenoplectiella juncoides (assay: Pre-emergence herbicidal activity against Schoenoplectiella juncoides at 500 g a.i/ha measured after 14 days). Conditions: not given.
Format: functional, organism-based

Row | Compound | Activity
13 | CCCCONC(=O)c1cn(C)nc1OCc1cccc(C(F)(F)F)c1 | Active

These compounds were tested on Pontederia vaginalis (assay: Pre-emergence herbicidal activity against Monochoria vaginalis at 500 g a.i/ha measured after 14 days). Conditions: not given.
Format: functional, organism-based

Row | Compound | Activity
14 | CCCCONC(=O)c1cn(C)nc1OCc1cccc(C(F)(F)F)c1 | Active

What follows are compounds tested on Echinochloa oryzicola (assay: Post-emergence herbicidal activity against Echinochloa oryzicola assessed as bleaching of stem/leaf parts). Conditions: not given.
Format: functional, organism-based

Row | Compound | Activity
15 | CCCCONC(=O)c1cn(C)nc1OCc1cccc(C(F)(F)F)c1 | Active

Each compound was assayed on Ammannia multiflora (assay: Pre-emergence herbicidal activity against Ammannia multiflora at 100 g a.i/ha measured after 14 days). Conditions: not given.
Format: functional, organism-based

Row | Compound | Activity
16 | CCCCONC(=O)c1cn(C)nc1OCc1cccc(C(F)(F)F)c1 | Active

These compounds were tested on Cyperus difformis (assay: Pre-emergence herbicidal activity against Cyperus difformis assessed as bleaching of stem/leaf parts). Conditions: not given.
Format: functional, organism-based

Row | Compound | Activity
17 | CCCCONC(=O)c1cn(C)nc1OCc1cccc(C(F)(F)F)c1 | Active

Each compound was assayed on Lindernia procumbens (assay: Post-emergence herbicidal activity against Lindernia procumbens assessed as bleaching of stem/leaf parts). Conditions: not given.
Format: functional, organism-based

Row | Compound | Activity
18 | CCCCONC(=O)c1cn(C)nc1OCc1cccc(C(F)(F)F)c1 | Active

Each compound was assayed on Eleocharis acicularis (assay: Post-emergence herbicidal activity against Eleocharis acicularis assessed as bleaching of stem/leaf parts). Conditions: not given.
Format: functional, organism-based

Row | Compound | Activity
19 | CCCCONC(=O)c1cn(C)nc1OCc1cccc(C(F)(F)F)c1 | Active

Each compound was assayed on Cyperus difformis (assay: Pre-emergence herbicidal activity against Cyperus difformis at 100 g a.i/ha measured after 14 days). Conditions: not given.
Format: functional, organism-based

Row | Compound | Activity
20 | CCCCONC(=O)c1cn(C)nc1OCc1cccc(C(F)(F)F)c1 | Active

These compounds were tested on Elatine triandra (assay: Pre-emergence herbicidal activity against Elatine triandra assessed as bleaching of stem/leaf parts). Conditions: not given.
Format: functional, organism-based

Row | Compound | Activity
21 | CCCCONC(=O)c1cn(C)nc1OCc1cccc(C(F)(F)F)c1 | Active

The compounds below were run on Oryza sativa (assay: Phytotoxicity against Oryza sativa cv. Koshihikari (rice) at 100 g a.i/ha measured after 14 days). Conditions: in vivo, 336 h.
Format: organism-based

Row | Compound | Activity
22 | CCCCONC(=O)c1cn(C)nc1OCc1cccc(C(F)(F)F)c1 | Non-toxic

These compounds were tested on Cyperus difformis (assay: Post-emergence herbicidal activity against Cyperus difformis assessed as bleaching of stem/leaf parts). Conditions: not given.
Format: functional, organism-based

Row | Compound | Activity
23 | CCCCONC(=O)c1cn(C)nc1OCc1cccc(C(F)(F)F)c1 | Active

The compounds below were run on Ammannia multiflora (assay: Post-emergence herbicidal activity against Ammannia multiflora assessed as bleaching of stem/leaf parts). Conditions: not given.
Format: functional, organism-based

Row | Compound | Activity
24 | CCCCONC(=O)c1cn(C)nc1OCc1cccc(C(F)(F)F)c1 | Active

What follows are compounds tested on Rotala indica (assay: Pre-emergence herbicidal activity against Rotala indica at 100 g a.i/ha measured after 14 days). Conditions: not given.
Format: functional, organism-based

Row | Compound | Activity
25 | CCCCONC(=O)c1cn(C)nc1OCc1cccc(C(F)(F)F)c1 | Active

These compounds were tested on Echinochloa oryzicola (assay: Pre-emergence herbicidal activity against Echinochloa oryzicola at 500 g a.i/ha measured after 14 days). Conditions: not given.
Format: functional, organism-based

Row | Compound | Activity
26 | CCCCONC(=O)c1cn(C)nc1OCc1cccc(C(F)(F)F)c1 | Active

Each compound was assayed on Pontederia vaginalis (assay: Pre-emergence herbicidal activity against Monochoria vaginalis assessed as bleaching of stem/leaf parts). Conditions: not given.
Format: functional, organism-based

Row | Compound | Activity
27 | CCCCONC(=O)c1cn(C)nc1OCc1cccc(C(F)(F)F)c1 | Active

Each compound was assayed on Ammannia multiflora (assay: Pre-emergence herbicidal activity against Ammannia multiflora at 500 g a.i/ha measured after 14 days). Conditions: not given.
Format: functional, organism-based

Row | Compound | Activity
28 | CCCCONC(=O)c1cn(C)nc1OCc1cccc(C(F)(F)F)c1 | Active

Each compound was assayed on Elatine triandra (assay: Pre-emergence herbicidal activity against Elatine triandra at 100 g a.i/ha measured after 14 days). Conditions: not given.
Format: functional, organism-based

Row | Compound | Activity
29 | CCCCONC(=O)c1cn(C)nc1OCc1cccc(C(F)(F)F)c1 | Active

Each compound was assayed on Eleocharis acicularis (assay: Pre-emergence herbicidal activity against Eleocharis acicularis at 100 g a.i/ha measured after 14 days). Conditions: not given.
Format: functional, organism-based

Row | Compound | Activity
30 | CCCCONC(=O)c1cn(C)nc1OCc1cccc(C(F)(F)F)c1 | Active

Each compound was assayed on Rotala indica (assay: Pre-emergence herbicidal activity against Rotala indica at 500 g a.i/ha measured after 14 days). Conditions: not given.
Format: functional, organism-based

Row | Compound | Activity
31 | CCCCONC(=O)c1cn(C)nc1OCc1cccc(C(F)(F)F)c1 | Active

What follows are compounds tested on Cyperus difformis (assay: Pre-emergence herbicidal activity against Cyperus difformis at 500 g a.i/ha measured after 14 days). Conditions: not given.
Format: functional, organism-based

Row | Compound | Activity
32 | CCCCONC(=O)c1cn(C)nc1OCc1cccc(C(F)(F)F)c1 | Active

Each compound was assayed on Echinochloa oryzicola (assay: Pre-emergence herbicidal activity against Echinochloa oryzicola assessed as bleaching of stem/leaf parts). Conditions: not given.
Format: functional, organism-based

Row | Compound | Activity
33 | CCCCONC(=O)c1cn(C)nc1OCc1cccc(C(F)(F)F)c1 | Active

Each compound was assayed on Oryza sativa (assay: Phytotoxicity against Oryza sativa cv. Koshihikari (rice) at 500 g a.i/ha measured after 14 days). Conditions: in vivo, 336 h.
Format: organism-based

Row | Compound | Activity
34 | CCCCONC(=O)c1cn(C)nc1OCc1cccc(C(F)(F)F)c1 | Toxic

These compounds were tested on Schoenoplectiella juncoides (assay: Pre-emergence herbicidal activity against Schoenoplectiella juncoides at 100 g a.i/ha measured after 14 days). Conditions: not given.
Format: functional, organism-based

Row | Compound | Activity
35 | CCCCONC(=O)c1cn(C)nc1OCc1cccc(C(F)(F)F)c1 | Active

The compounds below were run on Pontederia vaginalis (assay: Post-emergence herbicidal activity against Monochoria vaginalis assessed as bleaching of stem/leaf parts). Conditions: not given.
Format: functional, organism-based

Row | Compound | Activity
36 | CCCCONC(=O)c1cn(C)nc1OCc1cccc(C(F)(F)F)c1 | Active

Each compound was assayed on Eleocharis acicularis (assay: Pre-emergence herbicidal activity against Eleocharis acicularis at 500 g a.i/ha measured after 14 days). Conditions: not given.
Format: functional, organism-based

Row | Compound | Activity
37 | CCCCONC(=O)c1cn(C)nc1OCc1cccc(C(F)(F)F)c1 | Active

What follows are compounds tested on Elatine triandra (assay: Pre-emergence herbicidal activity against Elatine triandra at 500 g a.i/ha measured after 14 days). Conditions: not given.
Format: functional, organism-based

Row | Compound | Activity
38 | CCCCONC(=O)c1cn(C)nc1OCc1cccc(C(F)(F)F)c1 | Active
